Reference: the supplement of paper PMC11061612

Key:
Assay in all cases: Bliss excess, mean over the matrix (fraction); higher = more synergy
[1] = test system: 697 (B-Lymphoblastic Leukemia)
Procedure, shortened: (§1)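 Bliss excess equals the observed combination effect minus the expected value EA + EB − EA·EB, where EA and EB are the effects of each agent alone. Combination Emax is the second-highest inhibition within the matrix. Inhibition was scaled from CellTiter-Glo 2.0 luminescence, with 0 set by vehicle wells and 1 by blank wells, after 72 hours of two-drug dosing of cells plated in 1536-well plates.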

[2] = test system: C3A (Hepatocellular Carcinoma)
Procedure, shortened: as §1

[3] = test system: CFPAC-1 (Pancreatic Carcinoma)
Procedure, shortened: as §1

[4] = test system: COR-L23 (Non-Small Cell Lung Carcinoma)
Procedure, shortened: as §1

[5] = test system: DSH1 (Bladder Carcinoma)
Procedure, shortened: as §1

[6] = test system: ES7 (Ewing's Sarcoma)
Procedure, shortened: as §1

[7] = test system: JiyoyeP-2003 (Burkitt's Lymphoma)
Procedure, shortened: as §1

[8] = test system: KARPAS-1106P (B-Cell Non-Hodgkin's Lymphoma)
Procedure, shortened: as §1

[9] = test system: KARPAS-620 (Plasma Cell Myeloma)
Procedure, shortened: as §1

[10] = test system: KM-H2 (Hodgkin's Lymphoma)
Procedure, shortened: as §1

[11] = test system: LU-99A (Non-Small Cell Lung Carcinoma)
Procedure, shortened: as §1

[12] = test system: MDA-MB-231 (Breast Carcinoma)
Procedure, shortened: as §1

[13] = test system: NCI-H1694 (Small Cell Lung Carcinoma)
Procedure, shortened: as §1

[14] = test system: NCI-H2595 (Mesothelioma)
Procedure, shortened: as §1

[15] = test system: RH-1 (Ewing's Sarcoma)
Procedure, shortened: as §1

[16] = test system: SK-N-FI (Neuroblastoma)
Procedure, shortened: as §1

[17] = test system: SNU-C5 (Colorectal Carcinoma)
Procedure, shortened: as §1

[18] = test system: SW1783 (Low Grade Glioma)
Procedure, shortened: as §1

[19] = test system: SW780 (Bladder Carcinoma)
Procedure, shortened: as §1

[20] = test system: TE-5 (Esophageal Squamous Cell Carcinoma)
Procedure, shortened: as §1

SMILES	Bliss excess [1]	Bliss excess [2]	Bliss excess [3]	Bliss excess [4]	Bliss excess [5]	Bliss excess [6]	Bliss excess [7]	Bliss excess [8]	Bliss excess [9]	Bliss excess [10]	Bliss excess [11]	Bliss excess [12]	Bliss excess [13]	Bliss excess [14]	Bliss excess [15]	Bliss excess [16]	Bliss excess [17]	Bliss excess [18]	Bliss excess [19]	Bliss excess [20]
Cc1cc2ncnn2cc1Nc1ncc2c(n1)n(C1CCOCC1)c(=O)n2C [AZD7648] + CCN(CCO)CCCOc1ccc2c(Nc3cc(CC(=O)Nc4cccc(F)c4)[nH]n3)ncnc2c1 [AZD2811] (first compound max 10 µM, 7x7, partner max 1 µM)	0.018	0.0219	0.0181	-0.023	0.0145	-0.0538	0.0829	0.0642	0.0088	0.0507	0.0216	0.0014	0.0483	0.0183	-0.0385	0.0094	0.0093	0.0063	-0.018	-0.0237
Cc1cc2ncnn2cc1Nc1ncc2c(n1)n(C1CCOCC1)c(=O)n2C [AZD7648] + CN(C)CCCOc1ccc(-c2ccc3ncc4c(c3c2)n(C2CCOCC2)c(=O)n4C)cn1 [AZD0156] (first compound max 10 µM, 7x7, partner max 1 µM)	-0.0136	-0.032	0.0064	-0.0212	0.0171	0.0271	-0.0067	0.0083	-0.0373	0.0208	-0.0208	0.0146	0.0062	-0.0373	0.0087	0.0029	0.0202	-0.0078	-0.0069	-0.0362
Cc1cc2ncnn2cc1Nc1ncc2c(n1)n(C1CCOCC1)c(=O)n2C [AZD7648] + C[C@@H]1COCCN1C2=NC(=NC(=C2)C3(CC3)[S@](=N)(=O)C)C4=C5C=CNC5=NC=C4 [AZD6738] (first compound max 10 µM, 7x7, partner max 10 µM)	-0.009	0.0722	-0.0108	-0.0121	-0.0234	0.074	0.0127	0.0183	-0.0283	0.0227	0.0077	0.037	0.0194	-0.0059	-0.0016	-0.005	0.0455	0.0913	0.0476	-0.0093
Cc1cc2ncnn2cc1Nc1ncc2c(n1)n(C1CCOCC1)c(=O)n2C [AZD7648] + O=C(c1cc(Cc2n[nH]c(=O)c3ccccc23)ccc1F)N1CCN(C(=O)C2CC2)CC1 [Olaparib] (first compound max 10 µM, 7x7, partner max 10 µM)	0.0076	-0.0505	-0.0567	0.0328	0.0328	-0.0569	0.0339	-0.0538	-0.0306	-0.0127	-0.0556	-0.0752	-0.0004	-0.0258	-0.0115	-0.0292	-0.0064	-0.042	-0.0289	-0.0431
NC1(C(=O)N[C@@H](CCO)c2ccc(Cl)cc2)CCN(c2ncnc3[nH]ccc23)CC1 [Capivasertib] + CC(=O)c1c(C)c2cnc(Nc3ccc(N4CCNCC4)cn3)nc2n(C2CCCC2)c1=O [Palbociclib] (first compound max 10 µM, 7x7, partner max 10 µM)	-0.114	0.0164	-0.0758	-0.0252	-0.0395	0.0092	0.0203	-0.0168	0.0171	0.0484	-0.0189	-0.0024	-0.0472	-0.0248	-0.0427	-0.0581	-0.0112	-0.0263	-0.0119	0.0142
NC1(C(=O)N[C@@H](CCO)c2ccc(Cl)cc2)CCN(c2ncnc3[nH]ccc23)CC1 [Capivasertib] + CC(C)n1c(=O)n(C)c2cnc3cc(F)c(-c4ccc(OCCCN5CCCCC5)nc4)cc3c21 [AZD1390] (first compound max 10 µM, 7x7, partner max 0.3 µM)	-0.0197	-0.0724	-0.0828	-0.0579	-0.0895	-0.0471	-0.024	-0.0004	-0.0273	-0.0554	-0.0962	-0.102	-0.0081	-0.0609	-0.0292	-0.0588	-0.052	-0.0625	-0.0715	-0.0254
NC1(C(=O)N[C@@H](CCO)c2ccc(Cl)cc2)CCN(c2ncnc3[nH]ccc23)CC1 [Capivasertib] + CCN(CCO)CCCOc1ccc2c(Nc3cc(CC(=O)Nc4cccc(F)c4)[nH]n3)ncnc2c1 [AZD2811] (first compound max 10 µM, 7x7, partner max 1 µM)	-0.0593	-0.0156	0.0281	-0.0446	-0.0694	-0.0354	-0.0303	0.0426	0.0272	-0.0195	0.0154	-0.0154	0.0503	-0.0718	0.0222	-0.0265	-0.0571	-0.0236	0.015	-0.0283
NC1(C(=O)N[C@@H](CCO)c2ccc(Cl)cc2)CCN(c2ncnc3[nH]ccc23)CC1 [Capivasertib] + COc1nnc2ccc(N3CCC(c4ccc(OCCN5CCN(C)C(=O)[C@H]5C)cc4)CC3)nn12 [AZD5153] (first compound max 10 µM, 7x7, partner max 1 µM)	-0.065	0.0515	0.0332	0.0335	-0.0394	0.104	-0.0714	0.0728	-0.0154	0.0144	0	-0.009	0.0007	-0.0072	0.0517	-0.0019	0.0669	0.0324	0.0042	0.0361
NC1(C(=O)N[C@@H](CCO)c2ccc(Cl)cc2)CCN(c2ncnc3[nH]ccc23)CC1 [Capivasertib] + C[C@@H]1COCCN1C2=NC(=NC(=C2)C3(CC3)[S@](=N)(=O)C)C4=C5C=CNC5=NC=C4 [AZD6738] (first compound max 10 µM, 7x7, partner max 10 µM)	-0.0173	-0.0096	-0.0224	-0.0358	-0.064	-0.055	-0.0698	-0.0661	-0.0384	-0.0181	-0.0059	-0.0598	-0.0412	-0.0114	-0.0098	-0.0529	-0.0645	-0.0511	-0.0216	-0.0345
NC1(C(=O)N[C@@H](CCO)c2ccc(Cl)cc2)CCN(c2ncnc3[nH]ccc23)CC1 [Capivasertib] + Cn1cnc2c(F)c(Nc3ccc(Br)cc3Cl)c(C(=O)NOCCO)cc21 [Selumetinib] (first compound max 10 µM, 7x7, partner max 10 µM)	-0.165	-0.0208	0.0351	0.0071	0.121	0.0372	0.101	0.0759	0.114	-0.0084	-0.0222	-0.007	-0.0078	-0.0454	0.0148	-0.0313	0.0154	-0.0097	0.0066	0.0457
Cc1nc(Nc2ncc(C(=O)Nc3c(C)cccc3Cl)s2)cc(N2CCN(CCO)CC2)n1 [Dasatinib] + CC(=O)Nc1cccc(-n2c(=O)n(C3CC3)c(=O)c3c(Nc4ccc(I)cc4F)n(C)c(=O)c(C)c32)c1 [Trametinib] (first compound max 2 µM, 7x7, partner max 1 µM)	-0.0461	-0.0059	0.106	0.0284	-0.0516	-0.0112	0.193	0.122	0.0632	-0.0367	-0.0137	-0.0145	-0.0311	-0.0413	-0.0353	0.0118	-0.013	-0.0712	0.0848	-0.0099
COc1cccc2c1C(=O)c1c(O)c3c(c(O)c1C2=O)C[C@@](O)(C(=O)CO)C[C@@H]3O[C@H]1C[C@H](N)[C@H](O)[C@H](C)O1 [Doxorubicin] + Cc1cc2ncnn2cc1Nc1ncc2c(n1)n(C1CCOCC1)c(=O)n2C [AZD7648] (first compound max 1 µM, 7x7, partner max 10 µM)	0.101	-0.0065	0.0253	0.0351	0.0268	0.0997	0.094	0.0713	-0.0381	0.116	0.0269	-0.0124	0.12	0.0084	0.163	-0.0158	0.0378	0.0262	0.0082	-0.0229
CS(=O)(=O)CCNCc1ccc(-c2ccc3ncnc(Nc4ccc(OCc5cccc(F)c5)c(Cl)c4)c3c2)o1 [Lapatinib] + C[C@@H](Oc1cc(-c2cnn(C3CCNCC3)c2)cnc1N)c1c(Cl)ccc(F)c1Cl [Crizotinib] (first compound max 10 µM, 7x7, partner max 10 µM)	0.0166	-0.0963	-0.077	-0.0296	0.0668	-0.0214	-0.0186	-0.0483	-0.0459	0.0018	-0.0205	-0.042	0.025	-0.0198	-0.0553	-0.0365	-0.0301	-0.0306	-0.0364	-0.0054
CC(=O)c1c(C)c2cnc(Nc3ccc(N4CCNCC4)cn3)nc2n(C2CCCC2)c1=O [Palbociclib] + CC1(C)CCC(CN2CCN(c3ccc(C(=O)NS(=O)(=O)c4ccc(NCC5CCOCC5)c([N+](=O)[O-])c4)c(Oc4cnc5[nH]ccc5c4)c3)CC2)=C(c2ccc(Cl)cc2)C1 [Venetoclax] (first compound max 10 µM, 7x7, partner max 1 µM)	-0.0738	0.0437	0.015	-0.0429	-0.0361	0.0277	0.0975	-0.0424	0.0056	-0.0011	0.048	-0.0242	0	-0.0557	0.0175	0.0104	-0.017	-0.0484	-0.0395	-0.0558
CC(=O)c1c(C)c2cnc(Nc3ccc(N4CCNCC4)cn3)nc2n(C2CCCC2)c1=O [Palbociclib] + Cc1c2c(nn1C)CSCc1cc(n(C)n1)CSc1cc(c3ccccc3c1)OCCCc1c(C(=O)O)n(C)c3c-2c(Cl)ccc13 [AZD5991] (first compound max 10 µM, 7x7, partner max 1 µM)	-0.0709	0.0027	-0.0063	-0.0472	-0.0748	-0.005	-0.0436	-0.0645	0.0443	-0.0228	-0.046	-0.0424	-0.073	-0.0622	-0.0722	-0.0412	-0.0377	-0.0248	-0.0441	-0.0284
